Assays:
HDAC8 = target: T1, HDAC8 (Homo sapiens, UniProt Q9BY41); assay: HDAC enzyme inhibitory activity, FRET method; format: biochemical; details: Table 6; read-out: IC50 HDAC subtype 8
T1 sequence (Q9BY41 1-377): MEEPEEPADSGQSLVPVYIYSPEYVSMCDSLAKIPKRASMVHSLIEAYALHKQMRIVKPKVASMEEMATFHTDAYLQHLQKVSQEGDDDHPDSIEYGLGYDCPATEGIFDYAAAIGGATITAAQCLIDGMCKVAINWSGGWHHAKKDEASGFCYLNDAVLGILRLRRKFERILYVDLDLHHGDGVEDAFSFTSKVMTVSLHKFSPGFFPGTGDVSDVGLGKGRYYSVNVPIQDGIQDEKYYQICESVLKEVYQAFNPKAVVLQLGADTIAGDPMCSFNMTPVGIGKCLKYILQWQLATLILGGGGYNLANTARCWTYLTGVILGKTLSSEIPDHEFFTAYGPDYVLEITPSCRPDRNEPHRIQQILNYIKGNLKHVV
Description: (§1) The compounds of the present disclosure were assayed for enzyme inhibitory activity against various subtypes of HDAC enzymes by the FRET method. The various subtypes of HDAC enzymes were obtained either through purification or direct purchase of assay kits.
(§2) The specific method was as follows: The enzyme was added to a 384-well plate, and a reaction buffer was added to the control well. Serially diluted DMSO sample solutions were added to the reaction wells, and the plate was incubated at room temperature for 15 min. Then a chromogenic agent was added to stop the reaction, and fluorescence was generated. The fluorescence intensity was measured using an EnVision multi-label microplate reader (excitation: 355 nm, emission: 460 nm). The endpoint value was read after the color development reached stability. The inhibition IC50 of the compounds was calculated using GraphPad Prism4 software relative to DMSO.

HDAC7 = target: T2, HDAC7 (Homo sapiens, UniProt Q8WUI4); assay: HDAC enzyme inhibitory activity, FRET method; format: biochemical; details: Table 6; read-out: IC50 HDAC subtype 7
T2 sequence (Q8WUI4 1-952): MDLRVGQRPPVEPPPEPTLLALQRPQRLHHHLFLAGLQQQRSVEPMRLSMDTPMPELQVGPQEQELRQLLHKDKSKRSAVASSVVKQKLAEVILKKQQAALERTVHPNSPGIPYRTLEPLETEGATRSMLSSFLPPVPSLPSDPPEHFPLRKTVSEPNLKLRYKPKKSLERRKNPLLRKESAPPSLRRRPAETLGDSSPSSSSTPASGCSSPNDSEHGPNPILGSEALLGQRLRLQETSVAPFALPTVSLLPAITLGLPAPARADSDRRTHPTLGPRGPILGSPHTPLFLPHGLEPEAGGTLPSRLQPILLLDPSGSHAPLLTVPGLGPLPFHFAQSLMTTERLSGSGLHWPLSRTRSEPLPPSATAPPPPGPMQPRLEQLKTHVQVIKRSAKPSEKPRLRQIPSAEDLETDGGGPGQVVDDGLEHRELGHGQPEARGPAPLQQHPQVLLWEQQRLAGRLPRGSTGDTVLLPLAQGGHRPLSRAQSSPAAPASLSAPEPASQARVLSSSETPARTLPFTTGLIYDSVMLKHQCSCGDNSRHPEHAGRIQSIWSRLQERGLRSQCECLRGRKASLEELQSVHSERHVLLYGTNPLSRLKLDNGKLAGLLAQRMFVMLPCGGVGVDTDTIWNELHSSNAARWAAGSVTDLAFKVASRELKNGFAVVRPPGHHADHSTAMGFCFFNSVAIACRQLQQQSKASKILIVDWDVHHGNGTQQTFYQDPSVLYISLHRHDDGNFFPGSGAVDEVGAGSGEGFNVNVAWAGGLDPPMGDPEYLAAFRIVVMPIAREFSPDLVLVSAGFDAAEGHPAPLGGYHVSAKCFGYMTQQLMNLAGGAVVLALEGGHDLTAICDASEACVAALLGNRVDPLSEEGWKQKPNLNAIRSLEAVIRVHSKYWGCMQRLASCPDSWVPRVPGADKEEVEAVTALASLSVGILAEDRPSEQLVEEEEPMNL
Description: as §1, §2

## CS(C)(=O)=Nc1ccc(C(=O)Nc2cc(-c3ccc(F)cc3)ccc2N)cc1 [Compound 1, N-(4-Amino-4'-fluoro-[1,1'-biphenyl]-3-yl)-4-((dimethyl(oxo)-1^λ-6-sulfaneylidene)amino)benzamide]
HDAC8
  IC50: > 30 µM
HDAC7
  IC50: > 30 µM

— patent publication EP4714938A1, “HDAC1/2 SELECTIVE INHIBITOR AND USE THEREOF” (Wigen Biomedicine Technology (Shanghai) Co., Ltd., priority 2023, dated 2024)
